Where two headings read alike, the source gives them in different places.
How the values were obtained:
[1] = Stability of acetate crystal at 60° C. closed and 40° C./75% RH open, HPLC purity and XRPD; assay type: physicochemical; settings: for XPRD (crystal form after storage): 7 days; for Purity over 7 days (area %): initial purity 98.79 area %
Description: A certain amount of acetate crystal was held at 60° C. in a closed condition and at 40° C./75% RH in an open condition for a maximum of 7 days. Samples were taken on days 0, 3, and 7 and diluted with a diluent to about 0.3 mg/mL for HPLC purity testing. The solid samples were tested by XRPD to determine the crystal form.

[2] = Pharmacokinetics of acetate of Compound 22 in SD rats with single and repeated administration; assay type: in vivo; settings: for clearance / Vd / AUC(0-t) / half-life / bioavailability / Cmax / C0 / Tmax: rat, plasma; for Tmax: read-out: Tmax (median)
Description: The formulation for Group 5 was prepared before administration on Day 1, and then, divided into daily doses and stored at 5±3° C. After taking out the formulations on the day of administration, the formulations should be let stand at room temperature for at least 30 minutes before administration.
After blood collection, the blood collection tube containing the anticoagulant was turned upside down several times to mix well, and placed on wet ice before centrifugation. Within 60 minutes after blood collection, the samples were centrifuged at 2000 g for 10 minutes at 2-8° C. to separate red blood cells, thereby obtaining plasma samples. The plasma samples were transferred to cryovials and stored at −75±15° C. until analysis.
Blood samples were collected from SD rats at room temperature before administration and within 24 hours after administration. All collected samples were placed on wet ice before centrifugation and stored at −75±15° C. until analysis.
The mass spectrometer was Applied Biosystems/AB Sciex Triple Quad 4500.
Pharmacokinetic data was calculated using the linear logarithmic trapezoidal method, with a weight of 1/(Y*Y). Samples with the sample concentration below the lower limit of quantification were excluded from the calculation of pharmacokinetic parameters. […] The mean time to peak (Tmax) was represented as a median.

## CC(=O)O.Nc1nc(NCCc2ccc(NC3COC3)cc2)nc2nc(-c3ccco3)nn12 [Acetate of Compound 22, 2-(furan-2-yl)-N5-(4-(oxetane-3-ylamino)phenethyl)-[1,2,4]triazolo[1,5-a][1,3,5]triazine-5,7-diamine acetate]
[1]; 40° C./75% RH open
  XPRD (crystal form after storage): Transformed
  Purity over 7 days (area %): 98.99 area %
[1]; 60° C. and 40° C./75% RH, up to 7 days
  Degradation under test conditions: no significant degradation
[1]; 60° C. closed
  XPRD (crystal form after storage): Unchanged
  Purity over 7 days (area %): 99.01 area %
[2]; 63 mg/kg daily for 7 consecutive days
  exposure ratio between Day 7 and Day 1: less than 2
[2]; Group 2 PO 21 mg/kg single, Female
  F: 70.8 ± 6.75%
[2]; Group 2 PO 21 mg/kg single, Male
  F: 82.2 ± 20.6%
[2]; Group 2 PO 21 mg/kg single, Overall
  F: 76.5 ± 15.1%
[2]; Group 3 PO 63 mg/kg single, Female
  F: 74.1 ± 21.9%
[2]; Group 3 PO 63 mg/kg single, Male
  F: 56.9 ± 1.98%
[2]; Group 3 PO 63 mg/kg single, Overall
  F: 65.5 ± 16.8%
[2]; Group 4 PO 189 mg/kg single, Female
  F: 44.9 ± 10.1%
[2]; Group 4 PO 189 mg/kg single, Male
  F: 50.9 ± 5.28%
[2]; Group 4 PO 189 mg/kg single, Overall
  F: 47.9 ± 7.91%
[2]; Group 5 PO 63 mg/kg repeated, Day 1, Female
  F: 77.0 ± 12.5%
[2]; Group 5 PO 63 mg/kg repeated, Day 1, Male
  F: 51.9 ± 20.5%
[2]; Group 5 PO 63 mg/kg repeated, Day 1, Overall
  F: 64.5 ± 20.5%
[2]; Sprague-Dawley (SD), intravenous injection 2.0 mg/kg, read-out: clearance rate (CL)
  clearance: 6.02 mL/min/kg
[2]; Sprague-Dawley (SD), intravenous injection 2.0 mg/kg, read-out: steady-state apparent volume of distribution (Vss)
  Vd: 0.457 L/kg
[2]; Sprague-Dawley (SD), iv, 2 mg/kg, intravenous injection 2.0 mg/kg, read-out: drug exposure AUC0-t
  AUC(0-t): 5.36 µg·h/mL
[2]; Sprague-Dawley (SD), iv, 2 mg/kg, intravenous injection 2.0 mg/kg, read-out: half-life T1/2 (converted)
  half-life: 3.39 h
[2]; Sprague-Dawley (SD), oral 21 mg/kg
  bioavailability: 76.5%
[2]; Sprague-Dawley (SD), oral 63 mg/kg
  bioavailability: 65.5%
[2]; Sprague-Dawley (SD), oral 189 mg/kg
  bioavailability: 47.9%
[2]; Sprague-Dawley (SD), oral, 63 mg/kg, 63 mg/kg daily for 7 consecutive days, Day 1, read-out: AUC0-t
  AUC(0-t): 111 µg·h/mL
[2]; Sprague-Dawley (SD), oral, 63 mg/kg, 63 mg/kg daily for 7 consecutive days, Day 7, read-out: AUC0-t
  AUC(0-t): 127 µg·h/mL
[2]; Sprague-Dawley (SD), po, 21 mg/kg, oral 21 mg/kg, read-out: drug exposure (AUC0-t)
  AUC(0-t): 42.8 µg·h/mL
[2]; Sprague-Dawley (SD), po, 21 mg/kg, oral 21 mg/kg, read-out: maximum plasma concentration (Cmax)
  Cmax: 18400 ng/mL
[2]; Sprague-Dawley (SD), po, 63 mg/kg, oral 63 mg/kg, read-out: drug exposure (AUC0-t)
  AUC(0-t): 112 µg·h/mL
[2]; Sprague-Dawley (SD), po, 63 mg/kg, oral 63 mg/kg, read-out: maximum plasma concentration (Cmax)
  Cmax: 27400 ng/mL
[2]; Sprague-Dawley (SD), po, 189 mg/kg, oral 189 mg/kg, read-out: drug exposure (AUC0-t)
  AUC(0-t): 241 µg·h/mL
[2]; Sprague-Dawley (SD), po, 189 mg/kg, oral 189 mg/kg, read-out: maximum plasma concentration (Cmax)
  Cmax: 51800 ng/mL
[2]; Sprague-Dawley, Group 1 IV 2.0 mg/kg single, Female
  C0: 8140 ± 820 ng/mL
[2]; Sprague-Dawley, Group 1 IV 2.0 mg/kg single, Female, read-out: CL
  clearance: 5.66 ± 0.166 mL/min/kg
[2]; Sprague-Dawley, Group 1 IV 2.0 mg/kg single, Female, read-out: Vss
  Vd: 0.465 ± 0.122 L/kg
[2]; Sprague-Dawley, Group 1 IV 2.0 mg/kg single, Male
  C0: 7060 ± 699 ng/mL
[2]; Sprague-Dawley, Group 1 IV 2.0 mg/kg single, Male, read-out: CL
  clearance: 6.56 mL/min/kg
[2]; Sprague-Dawley, Group 1 IV 2.0 mg/kg single, Male, read-out: Vss
  Vd: 0.445 L/kg
[2]; both sexes, Sprague-Dawley, Group 1 IV 2.0 mg/kg single, Overall
  C0: 7600 ± 905 ng/mL
[2]; both sexes, Sprague-Dawley, Group 1 IV 2.0 mg/kg single, Overall, read-out: CL
  clearance: 6.02 ± 0.668 mL/min/kg
[2]; both sexes, Sprague-Dawley, Group 1 IV 2.0 mg/kg single, Overall, read-out: Vss
  Vd: 0.457 ± 0.088 L/kg
[2]; both sexes, Sprague-Dawley, iv, 2 mg/kg, Group 1 IV 2.0 mg/kg single, Overall, read-out: AUC0-t
  AUC(0-t): 5.36 ± 0.664 µg·h/mL
[2]; both sexes, Sprague-Dawley, iv, 2 mg/kg, Group 1 IV 2.0 mg/kg single, Overall, read-out: T1/2 (converted)
  half-life: 3.39 ± 2.9 h
[2]; both sexes, Sprague-Dawley, po, 21 mg/kg, Group 2 PO 21 mg/kg single, Overall, read-out: AUC0-t
  AUC(0-t): 42.8 ± 7.21 µg·h/mL
[2]; both sexes, Sprague-Dawley, po, 21 mg/kg, Group 2 PO 21 mg/kg single, Overall, read-out: Cmax
  Cmax: 18400 ± 4040 ng/mL
[2]; both sexes, Sprague-Dawley, po, 21 mg/kg, Group 2 PO 21 mg/kg single, Overall, read-out: T1/2 (converted)
  half-life: 3.47 ± 0.596 h
[2]; both sexes, Sprague-Dawley, po, 21 mg/kg, Group 2 PO 21 mg/kg single, Overall
  Tmax: 0.5 h
[2]; both sexes, Sprague-Dawley, po, 63 mg/kg, Group 3 PO 63 mg/kg single, Overall, read-out: AUC0-t
  AUC(0-t): 112 ± 37.2 µg·h/mL
[2]; both sexes, Sprague-Dawley, po, 63 mg/kg, Group 3 PO 63 mg/kg single, Overall, read-out: Cmax
  Cmax: 27400 ± 7200 ng/mL
[2]; both sexes, Sprague-Dawley, po, 63 mg/kg, Group 3 PO 63 mg/kg single, Overall, read-out: T1/2 (converted)
  half-life: 3.01 ± 0.63 h
[2]; both sexes, Sprague-Dawley, po, 63 mg/kg, Group 3 PO 63 mg/kg single, Overall
  Tmax: 1 h
[2]; both sexes, Sprague-Dawley, po, 63 mg/kg, Group 5 PO 63 mg/kg repeated, Day 1, Overall, read-out: AUC0-t
  AUC(0-t): 111 ± 42.1 µg·h/mL
[2]; both sexes, Sprague-Dawley, po, 63 mg/kg, Group 5 PO 63 mg/kg repeated, Day 1, Overall, read-out: Cmax
  Cmax: 28800 ± 11400 ng/mL

Reference: patent US20230048888A1, “USE OF TRIAZOLOTRIAZINE DERIVATIVE IN TREATMENT OF DISEASES” (ZHEJIANG VIMGREEN PHARMACEUTICALS, LTD., priority 2019, published 2023)
